One data set is described as follows: Solubility pH 7. In kind it is physicochemical. Conditions: pH 7, aqueous buffer.
Another data set has as its target T1, LMP7 (Homo sapiens, UniProt P20618+P28062).
T1 construct: endogenous in cells; host or cells: MOLT-4
Briefly: ProCISE proteasome subunit assay, LMP7. In kind it is biochemical. Conditions: MOLT4 lysate Hu 1 h. How it is done: (§1) This assay was used to assess the inhibitory activity against each of LMP2, LMP7, MECL1, β1, β2, and β5. Briefly, test compounds were serially diluted in DMSO at 100× concentration, then diluted to 10× in aqueous hypotonic lysis buffer. Lysate from the human acute lymphoblastic leukemia cell line, MOLT-4, was treated for 1 hour at 25° C. with compound at a final 1× concentration. […] Following this, lysate was denatured in guanidine hydrochloride, and subunits bound to probe were isolated with streptavidin-conjugated sepharose beads. Individual subunits were probed with subunit-specific primary antibodies, followed by HRP-conjugated secondary antibodies. A chemiluminescent substrate was used to generate signal associated with HRP binding, which was detected on a plate reader. Luminescent signal was normalized to protein content, then, percent activity calculated relative to DMSO-treated controls to generate IC50 curves.

Another data set addresses T2, β5 (Homo sapiens, UniProt P20618+P28074).
T2 construct: endogenous in cells; host or cells: MOLT-4
Briefly: ProCISE proteasome subunit assay, β5. The following applies: MOLT4 lysate Hu 1 h. In kind it is biochemical. How it is done: as §1

Structures are written as SMILES. In brackets after ≈: the same amount, converted by molar mass.

By solubility is commonly meant the concentration that dissolves in the medium under given conditions. What is called IC50 is the concentration at which inhibition is half-maximal. A higher IC50 goes with lower potency.

Regarding `COc1ccc(C[C@H](NC(=O)[C@H](C)NC(=O)Cc2cnc(N3CCC3)s2)C(=O)N[C@@H](CC2=CCCC2)C(=O)[C@@]2(C)CO2)cc1` [Compound C-2068, (S)-2-((S)-2-(2-(2-(azetidin-1-yl)thiazol-5-yl)acetamido)propanamido)-N—((S)-3-(cyclopent-1-en-1-yl)-1-((R)-2-methyloxiran-2-yl)-1-oxopropan-2-yl)-3-(4-methoxyphenyl)propanamide], in “Solubility pH 7”, the solubility was found to be 54.6 µg/mL (≈ 87.5 µM).

In “Solubility pH 7”, `CC1=C(C(=O)N[C@H](C)C(=O)N[C@@H](Cc2c[nH]c3ccccc23)C(=O)N[C@@H](Cc2ccccc2)C(=O)[C@@]2(C)CO2)Cc2ccccc21` [Compound C-2003] gave a solubility of 0.7 µg/mL (≈ 1.13 µM).

As for `COc1ccc(C[C@H](NC(=O)[C@@H](C)NC(=O)C2=CCCC2)C(=O)N[C@@H](Cc2ccccc2)C(=O)[C@@]2(C)CO2)cc1` [Compound C-2058, N—((R)-1-(((S)-3-(4-methoxyphenyl)-1-(((S)-1-((R)-2-methyloxiran-2-yl)-1-oxo-3-phenylpropan-2-yl)amino)-1-oxopropan-2-yl)amino)-1-oxopropan-2-yl)cyclopent-1-enecarboxamide], the concentration for half-maximal inhibition (IC50) amounted to 0.539 µM against LMP7 and 4.29 µM against β5. Also, the concentration in solution in the data set “Solubility pH 7” (solubility) was 45.4 µg/mL (≈ 82.9 µM).

Compound `COc1ccc(C[C@H](NC(=O)[C@H](C)NC(=O)Cc2cnc(N3CCCC3)s2)C(=O)N[C@@H](CC2=CCCC2)C(=O)[C@@]2(C)CO2)cc1` [Compound C-2069, (S)—N—((S)-3-(cyclopent-1-en-1-yl)-1-((R)-2-methyloxiran-2-yl)-1-oxopropan-2-yl)-3-(4-methoxyphenyl)-2-((S)-2-(2-(2-(pyrrolidin-1-yl)thiazol-5-yl)acetamido)propanamido)propanamide] registered a solubility in the data set “Solubility pH 7” of 26.6 µg/mL (≈ 41.7 µM).

`COc1ccc(C[C@H](NC(=O)[C@H](C)NC(=O)Cc2cnc(N)o2)C(=O)N[C@@H](CC2=CCCC2)C(=O)[C@@]2(C)CO2)cc1` [Compound C-2070, (S)-2-((S)-2-(2-(2-aminooxazol-5-yl)acetamido)propanamido)-N—((S)-3-(cyclopent-1-en-1-yl)-1-((R)-2-methyloxiran-2-yl)-1-oxopropan-2-yl)-3-(4-methoxyphenyl)propanamide] returned a solubility in the data set “Solubility pH 7” of 1020 µg/mL (≈ 1800 µM).

Regarding `CC1=C(C(=O)N[C@@H](C)C(=O)N[C@@H](Cc2c[nH]c3ccccc23)C(=O)N[C@@H](Cc2ccccc2)C(=O)[C@@]2(C)CO2)Cc2ccccc21` [Compound C-2004], the solubility in the data set “Solubility pH 7” was determined as 1.9 µg/mL (≈ 3.07 µM).

On to `COc1ccc(C[C@H](NC(=O)[C@@H](CC(=O)OC(C)(C)C)NC(=O)OCc2ccccc2)C(=O)N[C@@H](Cc2ccccc2)C(=O)[C@@]2(C)CO2)cc1` [Compound C-2016, (R)-tert-Butyl 3-(((benzyloxy)carbonyl)amino)-4-(((S)-3-(4-methoxyphenyl)-1-(((S)-1-((R)-2-methyloxiran-2-yl)-1-oxo-3-phenylpropan-2-yl)amino)-1-oxopropan-2-yl)amino)-4-oxobutanoate], for which the IC50 is 0.0697 µM against LMP7 and 0.279 µM against β5.

For the compound `COc1ccc(C[C@H](NC(=O)[C@H](C)NC(=O)Cc2cnc(N(C)C)s2)C(=O)N[C@@H](CC2=CCCC2)C(=O)[C@@]2(C)CO2)cc1` [Compound C-2067, (S)—N—((S)-3-(cyclopent-1-en-1-yl)-1-((R)-2-methyloxiran-2-yl)-1-oxopropan-2-yl)-2-((S)-2-(2-(2-(dimethylamino)thiazol-5-yl)acetamido)propanamido)-3-(4-methoxyphenyl)propanamide], the solubility in “Solubility pH 7” is 61.6 µg/mL (≈ 101 µM).

In “Solubility pH 7”, `COC(=O)N[C@@H](C)C(=O)N[C@@H](Cc1ccc(OC)cc1)C(=O)N[C@@H](Cc1ccccc1)C(=O)[C@@]1(C)CO1` [Compound C-2009, Methyl ((S)-1-(((S)-3-(4-methoxyphenyl)-1-(((S)-1-((R)-2-methyloxiran-2-yl)-1-oxo-3-phenylpropan-2-yl)amino)-1-oxopropan-2-yl)amino)-1-oxopropan-2-yl)carbamate] registered a solubility of 163 µg/mL (≈ 318 µM).

Turning to `COc1ccc(C[C@H](NC(=O)[C@@]2(CO)CCCN2)C(=O)N[C@@H](Cc2ccccc2)C(=O)[C@@]2(C)CO2)cc1` [Compound C-3005], the solubility in the data set “Solubility pH 7” amounted to 1920 µg/mL (≈ 3760 µM).

The compound `COc1ccc(C[C@H](NC(=O)[C@@H](C)NC(=O)c2ccc3[nH]ncc3c2)C(=O)N[C@@H](CC2CCCC2)C(=O)[C@@]2(C)CO2)cc1` [Compound C-2061, N—((R)-1-(((S)-1-(((S)-3-cyclopentyl-1-((R)-2-methyloxiran-2-yl)-1-oxopropan-2-yl)amino)-3-(4-methoxyphenyl)-1-oxopropan-2-yl)amino)-1-oxopropan-2-yl)-1H-indazole-5-carboxamide] yielded a solubility in “Solubility pH 7” of 26.3 µg/mL (≈ 44.6 µM). This solubility lies about 73-fold lower than the previous one.

For `COc1ccc(C[C@H](NC(=O)[C@@H](C)NC(=O)c2ccc3[nH]cnc3c2)C(=O)N[C@@H](CC2CCCC2)C(=O)[C@@]2(C)CO2)cc1` [Compound C-2062, N—((R)-1-(((S)-1-(((S)-3-cyclopentyl-1-((R)-2-methyloxiran-2-yl)-1-oxopropan-2-yl)amino)-3-(4-methoxyphenyl)-1-oxopropan-2-yl)amino)-1-oxopropan-2-yl)-1H-benzo[d]imidazole-5-carboxamide], in “Solubility pH 7”, the solubility was 56 µg/mL (≈ 95 µM).

Turning to `COc1ccc(C[C@H](NC(=O)[C@@H](CC(=O)O)NC(=O)OCc2ccccc2)C(=O)N[C@@H](Cc2ccccc2)C(=O)[C@@]2(C)CO2)cc1` [Compound C-2017, (R)-3-(((Benzyloxy)carbonyl)amino)-4-(((S)-3-(4-methoxyphenyl)-1-(((S)-1-((R)-2-methyloxiran-2-yl)-1-oxo-3-phenylpropan-2-yl)amino)-1-oxopropan-2-yl)amino)-4-oxobutanoic acid], the IC50 on LMP7 came out at 0.0372 µM; at β5 it was 0.129 µM.

For the compound `COc1ccc(C[C@H](NC(=O)[C@@H](C)NC(=O)c2ccc3cn[nH]c3c2)C(=O)N[C@@H](CC2CCCC2)C(=O)[C@@]2(C)CO2)cc1` [Compound C-2063, N—((R)-1-(((S)-1-(((S)-3-cyclopentyl-1-((R)-2-methyloxiran-2-yl)-1-oxopropan-2-yl)amino)-3-(4-methoxyphenyl)-1-oxopropan-2-yl)amino)-1-oxopropan-2-yl)-1H-indazole-6-carboxamide], in “Solubility pH 7”, the solubility is 21.4 µg/mL (≈ 36.3 µM).

For `COc1ccc(C[C@H](NC(=O)[C@H](C)NC(=O)Cc2cnc(N)s2)C(=O)N[C@@H](CC2=CCCC2)C(=O)[C@@]2(C)CO2)cc1` [Compound C-2066, (S)-2-((S)-2-(2-(2-aminothiazol-5-yl)acetamido)propanamido)-N—((S)-3-(cyclopent-1-en-1-yl)-1-((R)-2-methyloxiran-2-yl)-1-oxopropan-2-yl)-3-(4-methoxyphenyl)propanamide], in the data set “Solubility pH 7”, the solubility worked out at 43.6 µg/mL (≈ 74.7 µM). Compared with the last compound, the solubility is about 2-fold higher.

`COc1ccc(C[C@H](NC(=O)C(C)(C)N)C(=O)N[C@@H](Cc2ccccc2)C(=O)[C@@]2(C)CO2)cc1` [Compound C-3006, 2-Amino-N—((S)-3-(4-methoxyphenyl)-1-(((S)-1-((R)-2-methyloxiran-2-yl)-1-oxo-3-phenylpropan-2-yl)amino)-1-oxopropan-2-yl)-2-methylpropanamide] displayed a solubility in the data set “Solubility pH 7” of 385 µg/mL (≈ 823 µM). Against the preceding compound, the solubility is about 8.8-fold higher.

On to `COc1ccc(C[C@H](NC(=O)[C@H](C)NC(C)=O)C(=O)N[C@@H](Cc2ccccc2)C(=O)[C@@]2(C)CO2)cc1` [Compound C-2005], for which the solubility in “Solubility pH 7” came out at 735 µg/mL (≈ 1480 µM).

Values taken from patent US9657057B2, “Dipeptide and tripeptide epoxy ketone protease inhibitors” (Onyx Therapeutics, Inc., priority 2013, dated 2017).
